Laboratory results reported in US20250339569A1, “CARBONIC ANHYDRASE IX LIGANDS” (priority 2021, published 2025).
Where two headings read alike, the source gives them in different places.

Tests used:
[1] = Biodistribution study (SPECT/CT) in SK-RC-52 tumor-bearing mice with or without gelofusine; type: in vivo, NMRI nude mice; settings: female, NMRI nude, mouse, in vivo, iv, total radioactivity
Method: (§1) The effect on tumor uptake of prior injection of gelofusine for kidney protection was investigated in mice bearing the SK-RC-52 tumor. Biodistribution was evaluated using in vivo SPECT/CT imaging. Prior to the in vivo study the compounds (ligands) were initially radiolabeled with In-111 and the stability of radiolabeled compounds was evaluated in buffer at three different timepoints.
(§2) The study was performed in female NMRI nude mice (approximately 6 weeks of age) from Janvier Labs, France, housed up to 5 mice per cage.
(§3) The column was washed with 2 mL water, and then the final product was eluted from the column in EtOH solution (50%) • The sample was formulated in PBS to the final concentration of 150 MBq/mL and 5 nmol/mL.
(§4) SK-RC-52 cells were cultured in RPMI 1640 with GlutaMax-I (Thermo Fisher Scientific #61870044) supplemented with 10% fetal bovine serum+1% penicillin/streptomycin, harvested, washed twice in RPMI 1640 and resuspended at 2×10^7 cells/mL in RPMI 1640. HT-29 cells were cultured in McCoy's 5a Medium Modified (Sigma #M9309). For inoculation of HT-29 cells, cells were harvested, washed twice in PBS and resuspended at 5×10^7 cells/mL in PBS. Cells were kept on ice until inoculation.
(§5) Animals were anaesthetized (isoflurane, 2-4% in ambient air supplemented with 100% 02) prior to tumor inoculation. The tumor cells (100 μL suspension of either SK-RC-52 cells (2×10^6 cells/animal) or HT-29 cells (5×10^6 cells/animal)) were subcutaneously inoculated in the right flank using a 1-mL syringe equipped with a 27 G needle. Tumor growth and animal weight were measured twice per week. Tumor size was measured by caliper and the volume was estimated using the following formula: 0.52×(length×width^2). When tumor sizes reached 150-250 mm^3, animals were randomized into groups (n=3) of similar average tumor volume and body weight.
(§6) Animals were injected intravenously with In-111-labeled compounds (single bolus, 22.3-31.2 MBq, ˜1 nmol ligand, injection volume: 100 μL) in the lateral tail vein using a 29 G syringe.
(§7) CT was performed with helical scan, 300 ms exposure, reconstruction resolution of 250 μm. SPECT was performed with multi-pinhole scan and a 30 s frame time. For the quantification of the radioactivity uptake, regions of interests (ROIs) were drawn over the tumor, kidney, liver, and heart (estimate of blood) identified on the images. Uptake was expressed as percent of injected dose per gram tissue (% ID/g).

SK-RC-52 tumor = assay: as above; type: in vivo, NMRI nude mice; settings: mouse, in vivo
Method: as §1, §2, §3, §4, §5, §6, §7

[2] = Biodistribution study (SPECT/CT) in HT-29 tumor-bearing mice; type: in vivo, NMRI nude mice; settings: female, NMRI nude, mouse, in vivo, iv, total radioactivity
Method: as §1, §2, §3, §4, §5, §6, §7

HT-29 tumor = assay: as above; type: in vivo, NMRI nude mice; settings: mouse, in vivo
Method: as §1, §2, §3, §4, §5, §6, §7

CAXIV (hCAXIV-bio) = target: T1, CAXIV (hCAXIV-bio) (Homo sapiens, UniProt Q9ULX7); assay: SPR selectivity assay with biotinylated CAXIV; type: binding
T1 construct: purchased SinoBliological (Sino Biological) 10458-H08H
Method: (§8) In order to test selectivity of CAIX-binding peptides toward CAIV (SinoBliological, Cat #10472-1H081H), CAXII (SinoBliological, Cat #10617-H08H or CAXIV (SinoBliological, Cat #10458-H08H), SPR assays were performed analog to the assay described above but with a different target capture procedure. For immobilization, the carbonic anhydrases were biotinylated and capture on the SPR chip using the Biotin CAPture Kit (cytiva) according to the manufacturer instructions using HBSTE, 0.1% as Running Buffer.
(§9) Table 13 describes the protocol steps for biotinylated target capturing and assessment of the binding kinetics.

[3] = target: T2, CAIX-expressing human HT-29 colorectal cancer cells (Homo sapiens, UniProt Q16790); assay: FACS binding assay (IC50 determination, competition with tracer 3BP-2776 or 3BP-4149)
T2 construct: CAIX-expressing human HT-29 colorectal cancer cells; host or cells: HT-29 human colorectal cancer cells
Procedure, shortened: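 HT-29 cells in FACS buffer (PBS, 1% FCS) at 500.000 cells/ml were exposed to compounds competing with a labelled tracer, with biotinylated compounds detected by 1 μg/mL APC-streptavidin for 30 min on ice. APC/Cy5 median fluorescence was read by flow cytometry and IC50 derived by 4PL fit.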

CAIV (hCAIV-bio) = target: T3, CAIV (hCAIV-bio) (Homo sapiens, UniProt P22748); assay: SPR selectivity assay with biotinylated CAIV; type: binding
T3 construct: purchased SinoBliological (Sino Biological) 10472-1H081H
Method: as §8, §9

mouse CAIX = target: T4, mouse CAIX (Mus musculus, UniProt Q8VHB5); assay: Radioligand binding assay, 111In-labeled compounds, CHO-VGT cells with mouse CAIX
T4 construct: host or cells: CHO-VGT / CHO cells
Method: (§10) In order to assess the affinity of ^111In-labeled compounds to CAIX of different species, a radioligand binding assay was established.
(§11) CHO-VGT cells were transfected with the human, dog, and mouse CAIX (InSCREENex GmbH) and cultured in Ham's F-12 medium (Sigma-Aldrich #N4888) supplemented with 10% fetal bovine serum (FCS), 2 mM L-glutamine, 100 U/mL Penicillin, and 0.1 mg/mL streptomycin. Cells were detached with Accutase (Biolegend #423201) and counted using a particle counter (CASY Model TT; Scharfe Systems, Germany). Cell concentrations were adjusted to 3×10^5 mL^−1, and 1.000 μL of the suspension per well were dispensed into flat-clear-bottom 24 well plates.
(§12) Approximately 24 hours after re-seeding, the medium was aspirated and the cells were washed once with 1000 μL assay medium (Ham's medium without additives). To determine total binding, 700 μL of assay medium and 100 μL of the radioligand dilutions were added to the wells in triplicates. To determine non-specific binding, 600 μL of binding medium, 100 μL of the radioligand dilutions and 100 μL of a blocking solution containing 8 μM non-labeled compound were added to the wells in triplicates. At the end of incubation time (8 h at 37° C.), cells were washed and subsequently harvested in 300 μL RIPA buffer (Thermo Scientific #89901) containing Protease Inhibitor Cocktail Set I (Calbiochem #539131). Radioactivity of the cell lysate of each well was counted using a gamma counter (1470 Wizard, PerkinElmer, USA). An aliquot of each radioligand dilution was included in the gamma counter measurements to allow for determination of their actual concentrations via their known specific activity.

human CAIX = human CAIX (Homo sapiens, UniProt Q16790); assay: Radioligand binding assay, 111In-labeled compounds, CHO-VGT cells with human CAIX; set-up: host or cells: CHO-VGT / CHO cells
Method: as §10, §11, §12

[4] = target: T5, human carbonic anhydrase IX (hCAIX-Fc) (Homo sapiens, UniProt Q16790); assay: Surface plasmon resonance assay with hCAIX-Fc; type: binding; settings: for t1/2 category (activity): SPR dissociation half-life, hCAIX-Fc; for t1/2 category (activity) / Kd: 25° C.; for pKD category (affinity) CAIX / Kd: SPR; for pKD category (affinity) CAIX: hCAIX; for Kd: hCAIX-Fc captured, read-out: pKD category (activity) (converted)
T5 construct: purchased SinoBliological (Sino Biological) 10107-H02H

CAXII (hCAXII-bio) = target: T6, CAXII (hCAXII-bio) (Homo sapiens, UniProt O43570); assay: SPR selectivity assay with biotinylated CAXII; type: binding
T6 construct: purchased SinoBliological (Sino Biological) 10617-H08H
Method: as §8, §9

dog CAIX = assay: Radioligand binding assay, 111In-labeled compounds, CHO-VGT cells with dog CAIX; settings: 111In-labeled compound, 8 h at 37°C
Method: as §10, §11, §12

[5] = Tumor/Blood uptake ratio at 4 h p.i.
[6] = Tumor/Liver uptake ratio at 4 h p.i.

T6 sequence (O43570 25-354): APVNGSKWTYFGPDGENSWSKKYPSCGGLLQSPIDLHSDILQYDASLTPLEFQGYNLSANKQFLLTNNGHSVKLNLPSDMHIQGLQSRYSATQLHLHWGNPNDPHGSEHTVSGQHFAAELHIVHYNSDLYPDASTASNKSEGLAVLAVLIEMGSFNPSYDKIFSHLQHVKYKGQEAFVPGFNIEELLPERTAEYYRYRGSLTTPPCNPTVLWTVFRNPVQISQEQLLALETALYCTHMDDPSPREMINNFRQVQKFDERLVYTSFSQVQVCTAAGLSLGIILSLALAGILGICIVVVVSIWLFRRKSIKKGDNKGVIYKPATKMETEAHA
T3 sequence (P22748 19-284): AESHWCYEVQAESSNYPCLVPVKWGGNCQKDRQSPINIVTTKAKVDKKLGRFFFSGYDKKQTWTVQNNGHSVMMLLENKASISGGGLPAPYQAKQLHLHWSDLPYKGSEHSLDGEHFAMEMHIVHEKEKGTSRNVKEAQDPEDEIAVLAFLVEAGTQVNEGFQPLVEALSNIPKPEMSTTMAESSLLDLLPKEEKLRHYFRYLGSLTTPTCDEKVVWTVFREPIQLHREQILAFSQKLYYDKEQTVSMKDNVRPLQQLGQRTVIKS
T4 sequence (Q8VHB5 32-437): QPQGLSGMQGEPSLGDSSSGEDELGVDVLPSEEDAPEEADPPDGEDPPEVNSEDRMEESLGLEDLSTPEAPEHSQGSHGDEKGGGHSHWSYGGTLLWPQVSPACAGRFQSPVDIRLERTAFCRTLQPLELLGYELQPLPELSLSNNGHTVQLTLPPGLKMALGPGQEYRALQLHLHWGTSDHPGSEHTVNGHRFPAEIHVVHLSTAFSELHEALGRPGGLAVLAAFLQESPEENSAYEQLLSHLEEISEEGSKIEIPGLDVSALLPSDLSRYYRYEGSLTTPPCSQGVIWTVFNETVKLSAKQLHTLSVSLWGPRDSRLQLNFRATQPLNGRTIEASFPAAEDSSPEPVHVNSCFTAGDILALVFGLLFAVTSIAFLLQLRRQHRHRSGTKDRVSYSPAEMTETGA
T1 sequence (Q9ULX7 16-337): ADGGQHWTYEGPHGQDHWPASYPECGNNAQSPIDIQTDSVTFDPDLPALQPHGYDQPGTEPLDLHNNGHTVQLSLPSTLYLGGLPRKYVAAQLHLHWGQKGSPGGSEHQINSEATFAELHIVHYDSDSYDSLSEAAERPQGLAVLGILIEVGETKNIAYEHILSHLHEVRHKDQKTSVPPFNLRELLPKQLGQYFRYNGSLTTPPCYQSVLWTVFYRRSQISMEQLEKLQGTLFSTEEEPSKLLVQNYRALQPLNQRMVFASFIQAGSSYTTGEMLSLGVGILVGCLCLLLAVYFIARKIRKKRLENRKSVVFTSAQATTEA

CC(C)C[C@@H]1NC(=O)[C@H](Cc2ccc(NC(=O)CCS(N)(=O)=O)cc2)NC(=O)[C@H](CC(=O)O)NC(=O)[C@H]2CCCN2C(=O)[C@H](CCC(=O)O)NC(=O)[C@@H](NC(=O)[C@H](CCC(N)=O)NC(=O)CN2CCN(CC(=O)O)CCN(CC(=O)O)CCN(CC(=O)O)CC2)CSCc2cccc(c2)CSC[C@@H](C(N)=O)NC(=O)[C@H](CO)NC(=O)[C@H](Cc2c[nH]c3ccccc23)NC(=O)[C@H]([C@@H](C)O)NC1=O [DPI-4501, DOTA-Gln-[Cys(3MeBn)-Glu-pro-Asp-Aph(SaPr)-Leu-Thr-Trp-Ser-Cys]-NH2]
tissue uptake at 4 h ([1]; Blood uptake at 4 h p.i.): 0.05 ± 0.01 %ID/g | tissue uptake at 4 h ([1]; Liver uptake at 4 h p.i.): 0.08 ± 0.01 %ID/g | tissue uptake ([1]; Peak Tumor Uptake): 7.17 ± 1.92 %ID/g | tissue to tissue ratio at 4 h [1, 5]: 128 ± 20.3 | tissue to tissue ratio at 4 h [1, 6]: 70.2 ± 17 | Peak Tumor Uptake (SK-RC-52 tumor; female, NMRI nude, iv): 6.01 ± 0.39 % ID/g | Blood uptake at 4 h p.i. (SK-RC-52 tumor; female, NMRI nude, iv, 4 h): 0.03 ± 0.003 % ID/g | Liver uptake at 4 h p.i. (SK-RC-52 tumor; female, NMRI nude, iv, 4 h): 0.07 ± 0.01 % ID/g | Tumor/Blood uptake ratio at 4 h p.i. (SK-RC-52 tumor; female, NMRI nude, iv, 4 h): 178.6 ± 39.3 | Tumor/Liver uptake ratio at 4 h p.i. (SK-RC-52 tumor; female, NMRI nude, iv, 4 h): 81.4 ± 14.0 | Time to peak uptake in tumor (SK-RC-52 tumor): 1 h | tissue uptake at 4 h ([2]; Blood uptake at 4 h p.i.): 0.04 ± 0.005 %ID/g | tissue uptake at 24 h ([2]; Kidney uptake at 24 h p.i.): 2.16 ± 0.36 %ID/g | tissue uptake at 4 h ([2]; Liver uptake at 4 h p.i.): 0.12 ± 0.01 %ID/g | tissue uptake ([2]; Peak Kidney uptake): 5.61 ± 0.57 %ID/g | tissue uptake ([2]; Peak Tumor Uptake): 3.81 ± 0.26 %ID/g | tissue to tissue ratio at 4 h [2, 5]: 104 ± 10.2 | tissue to tissue ratio at 4 h [2, 6]: 29.8 ± 2.5 | tissue to tissue ratio at 24 h ([2]; Tumor/kidney uptake ratio at 24 h p.i.): 1.5 ± 0.1 | Time to peak uptake in tumor (HT-29 tumor): 2 h | % remaining tumor uptake at 24 h p.i. (HT-29 tumor; 24 h): 80 ± 4.4%

CC(C)C[C@@H]1NC(=O)[C@H](Cc2cccc(NC(=O)CCCS(N)(=O)=O)c2)NC(=O)[C@H](CC(=O)O)NC(=O)[C@H]2CCCN2C(=O)[C@H](CCC(=O)O)NC(=O)[C@@H](NC(=O)[C@H](CCC(N)=O)NC(=O)CN2CCN(C(=O)CN3CCN(CC(=O)O)CCN(CC(=O)O)CCN(CC(=O)O)CC3)CC2)CSCc2cccc(c2)CSC[C@@H](C(N)=O)NC(=O)[C@H](CO)NC(=O)[C@H](Cc2c[nH]c3ccccc23)NC(=O)[C@H]([C@@H](C)O)NC1=O [3BP-4452, DOTA-PPAc-Gln-[Cys(3MeBn)-Glu-pro-Asp-Af3(Cpsu)-Leu-Thr-Trp-Ser-Cys]-NH2]
Kd (CAXIV (hCAXIV-bio)): > 1 µM | IC50 [3]: < 0.01 µM | Kd (CAIV (hCAIV-bio)): > 1 µM | Kd (mouse CAIX): 0.01 to 0.0794 µM | Kd (human CAIX): < 0.01 µM | t1/2 category (activity) [4]: A (t1/2>15.0 minutes) | pKD category (affinity) CAIX [4]: A (pKD values >8.0) | Kd [4]: < 0.01 µM | Kd (CAXII (hCAXII-bio)): > 1 µM | pKD category (activity) (dog CAIX): A (pKD values >8.0)

CC(C)C[C@@H]1NC(=O)[C@H](Cc2ccc(NC(=O)CCS(N)(=O)=O)cc2)NC(=O)[C@H](CC(=O)O)NC(=O)[C@H]2CCCN2C(=O)[C@H](CCC(=O)O)NC(=O)[C@@H](NC(=O)[C@H](CCC(N)=O)NC(=O)CN2CCN(CC(=O)O)CCN(CC(=O)O)CCN(CC(=O)O)CC2)CSCc2cccc(c2)CSC[C@@H](C(N)=O)NC(=O)[C@H](CO)NC(=O)[C@H](Cc2c[nH]c3ccccc23)NC(=O)[C@H]([C@@H](C)O)NC1=O [3BP-4501, DOTA-Gln-[Cys(3MeBn)-Glu-pro-Asp-Aph(SaPr)-Leu-Thr-Trp-Ser-Cys]-NH2]
Kd (CAXIV (hCAXIV-bio); SPR, biotinylated CAXIV, read-out: pKD category (affinity) CAXIV (converted)): > 1 µM | IC50 ([3]; FACS binding assay, HT-29 cells, competition with tracer 3BP-2776 (10 nM, biotin-labeled), 4° C., 1 hour, read-out: pIC50 category (activity) (converted)): < 0.01 µM | Kd (CAIV (hCAIV-bio); SPR, biotinylated CAIV, read-out: pKD category (affinity) CAIV (converted)): > 1 µM | Kd (mouse CAIX; 111In-labeled compound, Mouse CAIX, 8 h at 37°C, read-out: pKD category (activity) (converted)): 0.01 to 0.0794 µM | Kd (human CAIX; 111In-labeled compound, Human CAIX, 8 h at 37°C, read-out: pKD category (activity) (converted)): < 0.01 µM | t1/2 category (activity) [4]: A (t1/2>15.0 minutes) | pKD category (affinity) CAIX [4]: A (pKD values >8.0) | Kd [4]: < 0.01 µM | Kd (CAXII (hCAXII-bio); SPR, biotinylated CAXII, read-out: pKD category (affinity) CAXII (converted)): > 1 µM | pKD category (activity) (dog CAIX): A (pKD values >8.0)
